The values that follow come from US12522607B2, “Substituted pyrazolo[3,4-d]pyrimidines as wee-1 inhibitors” (WIGEN BIOMEDICINE TECHNOLOGY (SHANGHAI) CO., LTD., priority 2020, dated 2026).

The term IC50 denotes the concentration that inhibits the measured activity by half.

In experiment [1] the target is T1, Wee-1 kinase (Homo sapiens, UniProt P30291).
T1 construct: purchased Invitrogen
The experiment in a line: Inhibitory activity against Wee-1 kinase (Lanthra Screen Wee-1 kinase kit, Tracer 178). Format: binding. The note with it: Wee-1 kinase 5 nM, Tracer 178 50 nM, 1 h room temperature. The gist of the method:
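LanthaScreen binding format: Wee-1 kinase (5 nM final) with Eu-anti-GST antibody (2 nM final) and kinase Tracer 178 (50 nM final), compounds serially diluted in DMSO. 1 h at room temperature before reading. IC50 relative to DMSO control.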

Experiment [2] concerns HT29 cells. The experiment in a line: Antiproliferative activity against HT29 cells (Cell Titer-Lumi, ATP content). The format is cell-based. The note with it: Homo sapiens, HT-29, 72 after compound addition, read-out: HT-29 cells Anti-proliferative activity (IC50 for the inhibition against HT-29 cell growth). The gist of the method:
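3000 cells per well, allowed to adhere overnight, then exposed to a gradient dilution of compound for 72 (units as printed). Cellular ATP read by luminescence (Cell Titer-Lumi) as a growth measure; IC50 for growth inhibition calculated.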

T1 sequence (P30291 whole entry): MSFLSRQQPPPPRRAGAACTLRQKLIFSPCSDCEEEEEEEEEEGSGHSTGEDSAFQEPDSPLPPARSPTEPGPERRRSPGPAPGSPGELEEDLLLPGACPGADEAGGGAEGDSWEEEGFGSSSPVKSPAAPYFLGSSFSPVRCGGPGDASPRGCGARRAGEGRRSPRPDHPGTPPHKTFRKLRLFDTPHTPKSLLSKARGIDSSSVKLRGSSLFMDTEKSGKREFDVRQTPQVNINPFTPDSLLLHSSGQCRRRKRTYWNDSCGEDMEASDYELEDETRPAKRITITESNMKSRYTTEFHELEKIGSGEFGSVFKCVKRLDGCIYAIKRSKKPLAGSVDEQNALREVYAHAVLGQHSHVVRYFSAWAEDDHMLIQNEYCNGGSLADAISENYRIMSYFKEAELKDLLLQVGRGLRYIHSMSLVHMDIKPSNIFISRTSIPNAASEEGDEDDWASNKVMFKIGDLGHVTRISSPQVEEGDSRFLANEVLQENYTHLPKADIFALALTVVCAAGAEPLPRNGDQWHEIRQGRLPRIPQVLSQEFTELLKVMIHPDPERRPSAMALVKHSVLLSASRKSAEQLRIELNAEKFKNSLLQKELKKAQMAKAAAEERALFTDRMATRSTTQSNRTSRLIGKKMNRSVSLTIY

In the case of `C=CCn1c(=O)c2cnc(Nc3ccc4c(c3)CN(C)CC43CC3)nc2n1-c1cc(F)c(=O)n(C(C)C)c1` [Compound 314], the IC50 was not above 30 nM in experiment [1] and not above 1000 nM in experiment [2].
The matching figures for `C=CCn1c(=O)c2cnc(Nc3ccc(CCN(C)C)c(C)c3)nc2n1-c1ccc(=O)n(C(C)C)n1` [Compound 215]: not above 30 nM and not above 1000 nM.
`C=CCn1c(=O)c2cnc(Nc3ccc(N4CCN(C)CC4)cc3)nc2n1-c1cn(C(C)C)c(=O)cc1OC` [Compound 30]: the IC50 in experiment [1] is 30 to 100 nM; in experiment [2] it was more than 3000 nM.
The corresponding values for `C=CCn1c(=O)c2cnc(Nc3ccc(N4C[C@@H](C)N[C@@H](C)C4)c(Cl)c3)nc2n1-c1ccc(=O)n(C(C)C)n1` [Compound 120] are not above 30 nM and not above 1000 nM.
For `C=CCn1c(=O)c2cnc(Nc3cc(Cl)c(N4CCN(C)CC4)c(OC)c3)nc2n1-c1ccc(=O)n(C(C)C)n1` [Compound 66], the values for the 50% inhibitory concentration (IC50) in experiment [1] and in experiment [2] were not above 30 nM and not above 1000 nM, respectively.
With `C=CCn1c(=O)c2cnc(Nc3cc(N4CCN(C(C)C)CC4)c4ccn(C5CC5)c4c3)nc2n1-c1ccc(=O)n(C(C)C)n1` [Compound 259], the IC50 in experiment [1] is not above 30 nM; in experiment [2], not above 1000 nM.
As to `C=CCn1c(=O)c2cnc(Nc3cc(F)c(N4CCN(C)CC4)c(OC)c3)nc2n1-c1ccc(=O)n(C(C)C)n1` [Compound 64], the IC50 is not above 30 nM in experiment [1] and not above 1000 nM in experiment [2].
Turning to `C=CCn1c(=O)c2cnc(Nc3ccc(N4CCN(C)CC4)cc3)nc2n1-c1ccc(=O)n(C(C)C)c1` [Compound 20], the figures for the 50% inhibitory concentration (IC50) in experiment [1] and in experiment [2] were not above 30 nM and not above 1000 nM, respectively.
In the case of `C=CCn1c(=O)c2cnc(Nc3ccc(C4CCN(C)CC4)c(CC(F)(F)F)c3)nc2n1-c1ccc(=O)n(C(C)C)n1` [Compound 199], the IC50 in experiment [1] is not above 30 nM; in experiment [2], not above 1000 nM.
The matching figures for `C=CCn1c(=O)c2cnc(Nc3ccc(N4CCN(C)CC4)c(C(F)(F)F)c3)nc2n1-c1ccc(=O)n(C(C)C)c1` [Compound 50]: not above 30 nM and not above 1000 nM.
Take `C=CCn1c(=O)c2cnc(Nc3ccc4c(c3)CNC4)nc2n1-c1ccc(=O)n(C(C)C)n1` [Compound 221]: the IC50 was not above 30 nM in experiment [1] and 1000 to 3000 nM in experiment [2].
As to `C=CCn1c(=O)c2cnc(Nc3ccc(N4CCN(C)CC4)c(C)c3)nc2n1-c1ccc(=O)n(C(C)C)c1` [Compound 296], the IC50 is not above 30 nM in experiment [1] and not above 1000 nM in experiment [2].
The corresponding values for `CCn1c(=O)c2cnc(Nc3ccc4c(c3)CN(C)CC43CC3)nc2n1-c1ccc(=O)n(C(C)(C)C)c1` [Compound 333] are not above 30 nM and not above 1000 nM.
The corresponding values for `C=CCn1c(=O)c2cnc(Nc3ccc(N4CCN(C)CC4)c(CO)c3)nc2n1-c1ccc(=O)n(C(C)C)n1` [Compound 52] are not above 30 nM and 1000 to 3000 nM.
The corresponding values for `C=CCn1c(=O)c2cnc(Nc3cc(C)c(N4CCNCC4)c(F)c3)nc2n1-c1ccc(=O)n(C(C)C)n1` [Compound 55] are not above 30 nM and not above 1000 nM.
Consider `C=CCn1c(=O)c2cnc(Nc3ccc(N4CCC5(CN(C)C5)C4)cc3)nc2n1-c1ccc(=O)n(C(C)C)n1` [Compound 172], for which the IC50 in experiment [1] was not above 30 nM; in experiment [2], not above 1000 nM.
The matching figures for `CCn1c(=O)c2cnc(Nc3ccc(N4CCN(C)CC4)c(C)c3)nc2n1-c1ccc(=O)n(C(C)(C)C)n1` [Compound 285]: not above 30 nM and not above 1000 nM.
The corresponding values for `C=CCn1c(=O)c2cnc(Nc3ccc(N4CC5(CCN(C)C5)C4)c(OC)c3)nc2n1-c1ccc(=O)n(C(C)C)n1` [Compound 165] are not above 30 nM and not above 1000 nM.
For `C=CCn1c(=O)c2cnc(Nc3ccc4c(c3)CNCC43CC3)nc2n1-c1ccc(=O)n(C(C)C)n1` [Compound 231], the IC50 was not above 30 nM in experiment [1] and not above 1000 nM in experiment [2].
The matching figures for `C=CCn1c(=O)c2cnc(Nc3ccc(N4CC(N5CCC5)C4)c(C)c3)nc2n1-c1ccc(=O)n(C(C)C)n1` [Compound 81]: not above 30 nM and not above 1000 nM.
In the case of `C=CCn1c(=O)c2cnc(Nc3ccc(N4CCC(C)(N)CC4)c(C)c3)nc2n1-c1ccc(=O)n(C(C)C)n1` [Compound 108], the IC50 in experiment [1] is not above 30 nM; in experiment [2] it was not above 1000 nM.
In the case of `C=CCn1c(=O)c2cnc(Nc3ccc(N4CCN(C)CC4)cc3)nc2n1-c1ccc(=O)n(CC2CCC2)n1` [Compound 17], the IC50 lay in the range of 30 to 100 nM in experiment [1] and 1000 to 3000 nM in experiment [2].
The corresponding values for `C=CCn1c(=O)c2cnc(Nc3ccc(N4CCC(N5CCC(F)(F)CC5)CC4)c(OC)c3)nc2n1-c1ccc(=O)n(C(C)C)n1` [Compound 153] are not above 30 nM and not above 1000 nM.
As for `C=CCn1c(=O)c2cnc(Nc3ccc(N4CC[C@@H](N(C)C)C4)c(C)c3)nc2n1-c1ccc(=O)n(C(C)C)n1` [Compound 96], the concentration for half-maximal inhibition (IC50) in experiment [1] is not above 30 nM; in experiment [2], not above 1000 nM.
As for `C=CCn1c(=O)c2cnc(Nc3ccc(N4CCNCC4)c(C(F)(F)F)c3)nc2n1-c1ccc(=O)n(C(C)C)c1` [Compound 49], the values for the IC50 in experiment [1] and in experiment [2] were not above 30 nM and not above 1000 nM, respectively.
For the molecule `C=CCn1c(=O)c2cnc(Nc3ccc(C4CCN(C)CC4)c(C)c3)nc2n1-c1ccc(=O)n(C(C)(C)C)n1` [Compound 282], the IC50 in experiment [1] was not above 30 nM; in experiment [2], not above 1000 nM.
The corresponding values for `C=CCn1c(=O)c2cnc(Nc3cc(N4CCN(C(C)C)CC4)c4cc[nH]c4c3)nc2n1-c1ccc(=O)n(C(C)C)n1` [Compound 253] are not above 30 nM and not above 1000 nM.
The matching figures for `C=CCn1c(=O)c2cnc(Nc3ccc(C4CCNCC4)c(CC(F)(F)F)c3)nc2n1-c1ccc(=O)n(C(C)C)n1` [Compound 198]: not above 30 nM and not above 1000 nM.
Consider `C=CCn1c(=O)c2cnc(Nc3ccc(N4CCN(C)CC4)cc3)nc2n1-c1cc(C(F)(F)F)c(=O)n(C(C)C)c1` [Compound 25], for which the IC50 in experiment [1] is not above 30 nM; in experiment [2], not above 1000 nM.
The corresponding values for `C=CCn1c(=O)c2cnc(Nc3ccc(N4CCN(C5COC5)CC4)cc3)nc2n1-c1ccc(=O)n(C(C)C)n1` [Compound 35] are not above 30 nM and not above 1000 nM.
With `Cc1cc(Nc2ncc3c(=O)n(C(C)C)n(-c4cc(F)c(=O)n(C(C)C)c4)c3n2)ccc1N1CCN(C)CC1` [Compound 320], the IC50 is not above 30 nM in experiment [1] and not above 1000 nM in experiment [2].
The matching figures for `C=CCn1c(=O)c2cnc(Nc3ccc(C4CCNCC4)c(OC)c3)nc2n1-c1ccc(=O)n(C(C)C)n1` [Compound 194]: not above 30 nM and not above 1000 nM.
The corresponding values for `C=CCn1c(=O)c2cnc(Nc3ccc4c(c3)CNCC4(F)F)nc2n1-c1ccc(=O)n(C(C)C)n1` [Compound 240] are not above 30 nM and not above 1000 nM.
For the molecule `C=CCn1c(=O)c2cnc(Nc3ccc(C4CCN(C)CC4)cc3)nc2n1-c1ccc(=O)n(C(C)C)n1` [Compound 191], the IC50 was not above 30 nM in experiment [1] and not above 1000 nM in experiment [2].
Turning to `C=CCn1c(=O)c2cnc(Nc3ccc4c(c3)CN(C(C)C)CC4)nc2n1-c1ccc(=O)n(C(C)C)n1` [Compound 227], the IC50 in experiment [1] was not above 30 nM; in experiment [2], not above 1000 nM.
The matching figures for `C=CCn1c(=O)c2cnc(Nc3ccc4cc(N5CCN(C)CC5)ccc4c3)nc2n1-c1ccc(=O)n(C(C)C)n1` [Compound 218]: not above 30 nM and not above 1000 nM.
